“Also recorded” adds a separate entry of the source.

Holding throughout (format): in vivo
The subject of data set [1] is TAC mice. The data set can be described thus: Blood pressure by tail cuff in trans-aortic constriction (TAC) mice. As to conditions: daily SQ 2 mg/kg/mouse; for diastolic blood pressure / mean arterial pressure (MAP): approximately 5-6 weeks post-surgery, 30 minutes after dosing, compared to saline treated TAC mice. On the procedure: FIG. 1 is a graph showing the effects of treatment on systolic blood pressure. At approximately 5-6 weeks post-surgery, systolic blood pressure was measured 30 minutes after dosing by tail cuff.
FIG. 2 is a graph showing the effects of treatment on diastolic blood pressure. At approximately 5-6 weeks post-surgery, diastolic blood pressure was measured 30 minutes after dosing by tail cuff.
FIG. 3 is a graph showing the effects of treatment on mean arterial pressure (MAP). At approximately 5-6 weeks post-surgery, mean arterial pressure was measured 30 minutes after dosing by tail cuff.
(§1) Treatment was initiated one week after TAC surgery (daily SQ injections at a dose of 2 mg/kg/mouse) when aortic constriction was confirmed. The treatment groups (n=12 per groups) included sham surgery controls treated with saline, TAC surgery controls treated with saline, TAC surgery animals treated with A (1-7), TAC surgery animals treated with Compound 7 and TAC surgery animals treated with Compound 10. Blood pressure was measured approximately 5-6 weeks after surgery by tail cuff and unaffected by Compound 7 or Compound 10. […] Novel object recognition (NOR) is a test of non-spatial memory. […] The preference of the animal for a novel object over a familiar object exploits the natural tendency of rodents to explore novel objects, was tested 10 weeks after surgery.

Data set [2] has as its system TAC mice. The data set can be described thus: Novel object recognition (NOR) test in TAC mice. The note with it: daily SQ 2 mg/kg/mouse, 10 weeks post-surgery, compared to saline treated TAC mice. On the procedure:
FIG. 4 is a graph showing the effects of treatment on novel object recognition (NOR). At 10 weeks post-surgery, the mice underwent NOR test to assess cognitive function.
as §1

In data set [3] the test system is hippocampal cytokine levels (IL-2, IL-10, IL-4, IL-5, IL-6, IL-12p70, IFNγ, KC/GRO, TNFα, IL-10). The data set can be described thus: Hippocampal cytokine levels in TAC mice by multi-plexed immunoassay (Meso Scale Discovery). As to conditions: daily SQ 2 mg/kg/mouse, compared to saline treated TAC controls, data not shown. Here is the method: as §1
Data set [4] deals with TAC mice. The experiment in a line: Observation of adverse events after TAC surgery combined with Mas agonist treatment. As to conditions: daily SQ 2 mg/kg/mouse. Here is the method: as §1

With `CCCCOC(=O)NS(=O)(=O)c1ccc(OC(F)(F)F)cc1-c1ccc(Cn2ccnc2)cn1` [Compound 7], the blood pressure result in the data set on TAC mice [1] (approximately 5-6 weeks after surgery) is recorded as “unaffected”. Also, in the data set with TAC mice [1], the diastolic blood pressure entry is on record as “no significant effect” and the “mean arterial pressure (MAP)” value was “no significant effect”. The “novel object recognition (NOR) memory / cognitive function” value in the data set on TAC mice [2] is “restored NOR memory to sham levels; also recorded: significantly increased cognition”. The “hippocampal levels of all cytokines tested (IL-2, IL-10, IL-4, IL-5, IL-6, IL-12p70, IFNγ, KC/GRO, TNFα, IL-10)” value in data set [3] is recorded as “decreased”. The observable adverse events entry in the data set with TAC mice [4] is recorded as “no observable adverse events”.
As for “A (1-7): comparator treatment in TAC mice, printed only as A (1-7) (DRVYIHP; Angiotensin 1-7; UniProt P01019 25-31, looked up) [reference compound]”, in the data set on TAC mice [1], the diastolic blood pressure result is “significantly reduced” and the “mean arterial pressure (MAP)” value is recorded as “significantly reduced”.
